Data from patent publication US20240190868A1, “SOS1 INHIBITORS” (Acerand Therapeutics (USA) Limited, priority 2022, published 2024).
Counter-ions that a name gives are not always drawn.

Tested on: cellular pERK in NCI-H1975 cells (EGFR/L858R-T790M)
Assay: pERK potency assay (In Cell ELISA)
Assay type: cell-based
Conditions: Homo sapiens, 1 h compound incubation
Text: The assay measures the ability of a compound to inhibit SOS1 function in cells. SOS1 activates RAS proteins by catalyzing the conversion of RAS GDP to RAS GTP in response to receptor tyrosine kinase activation. Activation of RAS induces a sequence of cellular signaling events that result in increased phosphorylation of ERK at Threonine 202 and Tyrosine 204 (pERK). The procedure (i.e., In Cell ELISA as described below) measures the level of cellular pERK in response to a test compound in NCI-H1975 cells (EGFR/L858R-T790M).
First, NCI-H1975 cells were grown and maintained using media and procedures recommended by the ATCC. A day before compound addition, cells were plated in poly-D-lysine coated 96-well cell culture plates (Corning® BioCoat® Cat #356640) at 25000 cells/well/100 μL and grown overnight in an incubator at 37° C. with 5% CO2. A solution of a test compound was prepared with 3-fold serial dilutions in DMSO having a top concentration of 6 mM. On the day of the assay, 50 μL of a test compound dilution in media was added to each well of cell culture plate with a final compound concentration in the range of 0.001 μM to 20 μM. After addition of the compound, cells were incubated for 1 h at 37° C. with 5% CO2, after which the culture medium was removed. Cells were fixed with 4% formaldehyde in phosphate-buffered saline (PBS) and incubated at RT for 20 min. The plate was washed three times with PBST (PBS with 0.05% Tween®-20), followed by incubation with 100 μL of pre-cooled methanol at −20° C. for 20 min. After incubation, methanol was removed. The plate was again washed with PBST. Cells were then permeabilized with 100 μL/well of 0.1% Triton X-100 in PBS at RT for 20 min and then quenched with a quenching buffer (PBST containing 1% H2O2 and 0.1% sodium azide) for 20 min at RT with gentle shaking. After washing once with PBST, a blocking buffer (250 uL/well, Pierce™ Protein-Free-PBS Blocking Buffer, Cat #37572) was then added to the cells for 1-h incubation at RT, followed by an anti-pERK antibody (cell signaling, 1:1000 dilution in 5% BSA in PBST) incubation overnight at 4° C. and a secondary antibody-HRP (Jackson immunoresearch, 1:3000 dilution in 5% BSA in PBST) incubation at RT for 1 h. PBST wash was carried out after each step three times. Before the addition of a substrate (Advansta ELISABright™), the plate was washed with PBS twice to remove detergent residues. The Cellular pERK level was determined using the microplate reader (Biotek Synergy™ H1) to detect the chemiluminescence signal. IC50 was determined by fitting a 4-parameter sigmoidal concentration-response model.

IC50	SMILES
< 100 nM	CC(=O)N1CCC(F)(c2cc3/c(=N/[C@H](C)c4cccc(C(F)(F)F)c4C)nc(C)n(C)c3cn2)CC1 [Compound 1, (R,Z)-1-(4-(1,2-dimethyl-4-((1-(2-methyl-3-(trifluoromethyl)phenyl)ethyl)imino)-1,4-dihydropyrido[3,4-d]pyrimidin-6-yl)-4-fluoropiperidin-1-yl)ethan-1-one]
< 100 nM	CC(=O)N1CC=C(c2cc3/c(=N/[C@H](C)c4cccc(C(F)(F)F)c4C)nc(C)n(C)c3cn2)CC1 [Compound 2, (R,Z)-1-(4-(1,2-dimethyl-4-((1-(2-methyl-3-(trifluoromethyl)phenyl)ethyl)imino)-1,4-dihydropyrido[3,4-d]pyrimidin-6-yl)-3,6-dihydropyridin-1(2H)-yl)ethan-1-one]
< 100 nM	CC(=O)N1CC=C(c2cc3/c(=N/[C@H](C)c4cccc(C(F)(F)F)c4C)nc(C4CC4)n(C)c3cn2)CC1 [Compound 3]
< 100 nM	CC(=O)N1CC=C(c2cc3/c(=N/[C@H](C)c4cccc(C(F)F)c4F)nc(C)n(C)c3cn2)CC1 [Compound 4, (R,Z)-1-(4-(4-((1-(3-(difluoromethyl)-2-fluorophenyl)ethyl)imino)-1,2-dimethyl-1,4-dihydropyrido[3,4-d]pyrimidin-6-yl)-3,6-dihydropyridin-1(2H)-yl)ethan-1-one]
< 100 nM	CC(=O)N1CCC(O)(c2cc3/c(=N/[C@H](C)c4cccc(C(F)F)c4F)nc(C)n(C)c3cn2)CC1 [Compound 5, (R,Z)-1-(4-(4-((1-(3-(difluoromethyl)-2-fluorophenyl)ethyl)imino)-1,2-dimethyl-1,4-dihydropyrido[3,4-d]pyrimidin-6-yl)-4-hydroxypiperidin-1-yl)ethan-1-one]
< 100 nM	CC(=O)N1CCC(F)(c2cc3/c(=N/[C@H](C)c4cccc(C(F)F)c4F)nc(C)n(C)c3cn2)CC1 [Compound 6, (R,Z)-1-(4-(4-((1-(3-(difluoromethyl)-2-fluorophenyl)ethyl)imino)-1,2-dimethyl-1,4-dihydropyrido[3,4-d]pyrimidin-6-yl)-4-fluoropiperidin-1-yl)ethan-1-one]
< 100 nM	CC(=O)N1CC=C(c2cc3/c(=N/[C@H](C)c4cccc(C#N)c4C)nc(C)n(C)c3cn2)CC1 [Compound 7]
< 100 nM	CC(=O)N1CCC(F)(c2cc3/c(=N/[C@H](C)c4cccc(C#N)c4C)nc(C)n(C)c3cn2)CC1 [Compound 8]
< 100 nM	CC(=O)N1CC=C(c2cc3/c(=N/[C@H](C)c4cccc(C(F)(F)F)c4C)nc(C)n(C(C)C)c3cn2)CC1 [Compound 9]
< 100 nM	CC(=O)N1CC=C(c2cc3/c(=N/[C@H](C)c4cccc(C(F)(F)F)c4C)nc(C)n(C4CC4)c3cn2)CC1 [Compound 10]
< 100 nM	C#C[C@@H](/N=c1\nc(C)n(C)c2cnc(C3=CCN(C(C)=O)CC3)cc12)c1cccc(C(F)(F)F)c1C [Compound 11]
< 100 nM	CC(=O)N1CC=C(c2cnc3c(c2)/c(=N/[C@H](C)c2cccc(C(F)(F)F)c2C)nc(C)n3C)CC1 [Compound 12]
< 100 nM	CC(=O)N1CCC(F)(c2cnc3c(c2)/c(=N/[C@H](C)c2cccc(C(F)(F)F)c2C)nc(C)n3C)CC1 [Compound 13]
< 100 nM	CC(=O)N1CC=C(c2cc3/c(=N/[C@H](C)c4cccc(C(F)(F)F)c4C)ncn(C4CC4)c3cn2)CC1 [Compound 14]
< 100 nM	CC(=O)N1CCC(F)(c2cc3/c(=N/[C@H](C)c4cccc(C(F)(F)F)c4C)ncn(C)c3cn2)CC1 [Compound 15, (R,Z)-1-(4-fluoro-4-(1-methyl-4-((1-(2-methyl-3-(trifluoromethyl)phenyl)-ethyl)imino)-1,4-dihydropyrido[3,4-d]pyrimidin-6-yl)piperidin-1-yl)ethan-1-one hydrochloride]
< 100 nM	CC(=O)N1CC=C(c2cc3/c(=N/[C@H](C)c4cccc(C(F)(F)F)c4C)ncn(C)c3cn2)CC1 [Compound 16]
< 100 nM	CC(=O)N1CCC(F)(c2ccc3c(c2)/c(=N/[C@H](C)c2cccc(C(F)(F)F)c2C)ncn3C)CC1 [Compound 17]
< 100 nM	Cc1c([C@@H](C)/N=c2\nc(C)n(C)c3cnc(C4(C(F)F)CC4)cc23)cccc1C(F)(F)F [Compound 18, (R,Z)-6-(1-(difluoromethyl)cyclopropyl)-1,2-dimethyl-N-(1-(2-methyl-3-(trifluoromethyl)phenyl)ethyl)pyrido[3,4-d]pyrimidin-4(1H)-imine]
< 100 nM	Cc1c(C#N)cccc1[C@@H](C)/N=c1\nc(C)n(C)c2cnc(C3(C(F)F)CC3)cc12 [Compound 19]
< 100 nM	C[C@@H](/N=c1\ncn(C)c2cnc(C3(C(F)F)CC3)cc12)c1cccc(C(F)F)c1F [Compound 20, (R,Z)—N-(1-(3-(difluoromethyl)-2-fluorophenyl)ethyl)-6-(1-(difluoromethyl)-cyclopropyl)-1-methylpyrido[3,4-d]pyrimidin-4(1H)-imine]
< 100 nM	C#C[C@@H](/N=c1\ncn(C)c2cc(=O)n(C3(C(F)F)CC3)cc12)c1cccc(C(F)(F)F)c1C [Compound 21, (R,Z)-6-(1-(difluoromethyl)cyclopropyl)-1-methyl-4-((1-(2-methyl-3-(trifluoromethyl)phenyl)prop-2-yn-1-yl)imino)-4,6-dihydropyrido[4,3-d]pyrimidin-7(1H)-one]
< 100 nM	COc1nc(C2(O)CCN(C(C)=O)CC2)cc2/c(=N/[C@H](C)c3cccc(C(F)(F)F)c3C)ncn(C)c12 [Compound 22, (R,Z)-1-(4-hydroxy-4-(8-methoxy-1-methyl-4-((1-(2-methyl-3-(trifluoromethyl)phenyl)ethyl)imino)-1,4-dihydropyrido[3,4-d]pyrimidin-6-yl)piperidin-1-yl)ethan-1-one]
< 100 nM	COc1nc(C2(F)CCN(C(C)=O)CC2)cc2/c(=N/[C@H](C)c3cccc(C(F)(F)F)c3C)ncn(C)c12 [Compound 23, (R,Z)-1-(4-fluoro-4-(8-methoxy-1-methyl-4-((1-(2-methyl-3-(trifluoromethyl)phenyl)ethyl)imino)-1,4-dihydropyrido[3,4-d]pyrimidin-6-yl)piperidin-1-yl)ethan-1-one]
< 100 nM	COc1nc(C2(O)CC(C)(C)N(C(C)=O)C(C)(C)C2)cc2/c(=N/[C@H](C)c3cccc(C(F)(F)F)c3C)ncn(C)c12 [Compound 24, (R,Z)-1-(4-hydroxy-4-(8-methoxy-1-methyl-4-((1-(2-methyl-3-(trifluoromethyl)phenyl)ethyl)imino)-1,4-dihydropyrido[3,4-d]pyrimidin-6-yl)-2,2,6,6-tetramethylpiperidin-1-yl)ethan-1-one]
< 100 nM	CC(=O)N1CC=C(c2cc3/c(=N/[C@H](C)c4cccc(C(F)(F)F)c4C)nc4n(c3cn2)CCC4)CC1 [Compound 25, (R,Z)-1-(4-(5-((1-(2-methyl-3-(trifluoromethyl)phenyl)ethyl)imino)-5,7,8,9-tetrahydropyrido[4,3-e]pyrrolo[1,2-a]pyrimidin-3-yl)-3,6-dihydropyridin-1(2H)-yl)ethan-1-one]
< 100 nM	CC(=O)N1CCC(O)(c2cc3/c(=N/[C@H](C)c4cccc(C(F)(F)F)c4C)nc4n(c3cn2)CCC4)CC1 [Compound 26, (R,Z)-1-(4-hydroxy-4-(5-((1-(2-methyl-3-(trifluoromethyl)phenyl)ethyl)-imino)-5,7,8,9-tetrahydropyrido[4,3-e]pyrrolo[1,2-a]pyrimidin-3-yl)piperidin-1-yl)ethan-1-one]
< 100 nM	CC(=O)N1CCC(F)(c2cc3/c(=N/[C@H](C)c4cccc(C(F)(F)F)c4C)nc4n(c3cn2)CCC4)CC1 [Compound 27, (R,Z)-1-(4-fluoro-4-(5-((1-(2-methyl-3-(trifluoromethyl)phenyl)ethyl)-imino)-5,7,8,9-tetrahydropyrido[4,3-e]pyrrolo[1,2-a]pyrimidin-3-yl)piperidin-1-yl)ethan-1-one]
< 100 nM	CC(=O)N1CCC(O)(c2cc3/c(=N/[C@H](C)c4cccc(C(F)F)c4F)nc4n(c3cn2)CCC4)CC1 [Compound 28]
< 100 nM	CC(=O)N1CCC(F)(c2cc3/c(=N/[C@H](C)c4cccc(C(F)F)c4F)nc4n(c3cn2)CCC4)CC1 [Compound 29]
< 100 nM	CC(=O)N1CCC(F)(c2cc3/c(=N/[C@H](C)c4cccc(C#N)c4C)nc4n(c3cn2)CCC4)CC1 [Compound 30]
